Assay results published in ChEMBL document CHEMBL3045867, “Synthesis, characterization, and antimicrobial evaluation of novel naphthalene-based 1,2,4-triazoles” (2012).
Values after ≈ are worked out from the molar mass of the structure shown.

Key:
Format in all cases: functional
Aspergillus clavatus = assay: Antifungal activity against Aspergillus clavatus MTCC 1323 after 72 hr; conditions: MTCC 1323, 72 h
Aspergillus niger = assay: Antifungal activity against Aspergillus niger MTCC 282 after 72 hr; conditions: MTCC 282, 72 h
Candida albicans = assay: Antifungal activity against Candida albicans MTCC 227 after 72 hr; conditions: MTCC 227, 72 h
Streptococcus pyogenes = assay: Antibacterial activity against Streptococcus pyogenes MTCC 442 after 24 to 48 hr by serial broth dilution method
Staphylococcus aureus = assay: Antibacterial activity against Staphylococcus aureus MTCC 96 after 24 to 48 hr by serial broth dilution method
Pseudomonas aeruginosa = assay: Antibacterial activity against Pseudomonas aeruginosa MTCC 1688 after 24 to 48 hr by serial broth dilution method
Escherichia coli = assay: Antibacterial activity against Escherichia coli MTCC 443 after 24 to 48 hr by serial broth dilution method

Question: `O=C(Nn1c(S)nnc1-c1cccc2ccccc12)c1ccccc1` was tested. Which MIC99 (Aspergillus clavatus) did it give?
Answer: 1000 µg/mL (≈ 2890 µM)

Question: What about the MIC99 (Aspergillus niger) of the same compound?
Answer: 1000 µg/mL (≈ 2890 µM)

Question: And the MIC99 (Candida albicans)?
Answer: 1000 µg/mL (≈ 2890 µM)

Question: What about the MIC99 (Streptococcus pyogenes) of the same compound?
Answer: 1000 µg/mL (≈ 2890 µM)

Question: And the MIC99 (Staphylococcus aureus)?
Answer: 500 µg/mL (≈ 1440 µM)

Question: And the MIC99 (Pseudomonas aeruginosa)?
Answer: 50 µg/mL (≈ 144 µM)

Question: What about the MIC99 (Escherichia coli) of the same compound?
Answer: 500 µg/mL (≈ 1440 µM)

Question: With `Cc1ccccc1C(=O)Nn1c(S)nnc1-c1cccc2ccccc12` as the compound, how does the MIC99 (Aspergillus clavatus) read?
Answer: 100 µg/mL (≈ 277 µM)

Question: What about the MIC99 (Aspergillus niger) of the same compound?
Answer: 500 µg/mL (≈ 1390 µM)

Question: And the MIC99 (Candida albicans)?
Answer: 200 µg/mL (≈ 555 µM)

Question: And the MIC99 (Streptococcus pyogenes)?
Answer: 100 µg/mL (≈ 277 µM)

Question: And the MIC99 (Staphylococcus aureus)?
Answer: 500 µg/mL (≈ 1390 µM)

Question: And the MIC99 (Pseudomonas aeruginosa)?
Answer: 100 µg/mL (≈ 277 µM)

Question: What about the MIC99 (Escherichia coli) of the same compound?
Answer: 100 µg/mL (≈ 277 µM)

Question: What does the source list for `COc1ccccc1C(=O)Nn1c(S)nnc1-c1cccc2ccccc12`?
Answer: MIC99 (Aspergillus clavatus): 500 µg/mL (≈ 1330 µM); MIC99 (Aspergillus niger): 200 µg/mL (≈ 531 µM); MIC99 (Candida albicans): 200 µg/mL (≈ 531 µM); MIC99 (Streptococcus pyogenes): 500 µg/mL (≈ 1330 µM); MIC99 (Staphylococcus aureus): 250 µg/mL (≈ 664 µM); MIC99 (Pseudomonas aeruginosa): 250 µg/mL (≈ 664 µM); MIC99 (Escherichia coli): 100 µg/mL (≈ 266 µM)

Question: Which results are given for `O=C(Cc1ccccc1)Nn1c(S)nnc1-c1cccc2ccccc12`?
Answer: MIC99 (Aspergillus clavatus): 500 µg/mL (≈ 1390 µM); MIC99 (Aspergillus niger): 500 µg/mL (≈ 1390 µM); MIC99 (Candida albicans): 1000 µg/mL (≈ 2770 µM); MIC99 (Streptococcus pyogenes): 200 µg/mL (≈ 555 µM); MIC99 (Staphylococcus aureus): 250 µg/mL (≈ 694 µM); MIC99 (Pseudomonas aeruginosa): 500 µg/mL (≈ 1390 µM); MIC99 (Escherichia coli): 500 µg/mL (≈ 1390 µM)

Question: For `O=C(Nn1c(S)nnc1-c1cccc2ccccc12)c1ccccc1O`, which MIC99 (Aspergillus clavatus) is on record?
Answer: 200 µg/mL (≈ 552 µM)

Question: What about the MIC99 (Aspergillus niger) of the same compound?
Answer: 500 µg/mL (≈ 1380 µM)

Question: What about the MIC99 (Candida albicans) of the same compound?
Answer: 500 µg/mL (≈ 1380 µM)

Question: And the MIC99 (Streptococcus pyogenes)?
Answer: 500 µg/mL (≈ 1380 µM)

Question: And the MIC99 (Staphylococcus aureus)?
Answer: 500 µg/mL (≈ 1380 µM)

Question: What about the MIC99 (Pseudomonas aeruginosa) of the same compound?
Answer: 1000 µg/mL (≈ 2760 µM)

Question: What about the MIC99 (Escherichia coli) of the same compound?
Answer: 1000 µg/mL (≈ 2760 µM)

Question: `O=C(Nn1c(S)nnc1-c1cccc2ccccc12)c1ccccc1Cl` was tested. Which MIC99 (Aspergillus clavatus) did it give?
Answer: 250 µg/mL (≈ 656 µM)

Question: And the MIC99 (Aspergillus niger)?
Answer: 100 µg/mL (≈ 263 µM)

Question: And the MIC99 (Candida albicans)?
Answer: 50 µg/mL (≈ 131 µM)

Question: What about the MIC99 (Streptococcus pyogenes) of the same compound?
Answer: 500 µg/mL (≈ 1310 µM)

Question: And the MIC99 (Staphylococcus aureus)?
Answer: 500 µg/mL (≈ 1310 µM)

Question: And the MIC99 (Pseudomonas aeruginosa)?
Answer: 100 µg/mL (≈ 263 µM)

Question: And the MIC99 (Escherichia coli)?
Answer: 50 µg/mL (≈ 131 µM)

Question: For `O=C(Nn1c(S)nnc1-c1cccc2ccccc12)c1cccc(Cl)c1`, which MIC99 (Aspergillus clavatus) is on record?
Answer: 50 µg/mL (≈ 131 µM)

Question: What about the MIC99 (Aspergillus niger) of the same compound?
Answer: 50 µg/mL (≈ 131 µM)

Question: And the MIC99 (Candida albicans)?
Answer: 50 µg/mL (≈ 131 µM)

Question: What about the MIC99 (Streptococcus pyogenes) of the same compound?
Answer: 100 µg/mL (≈ 263 µM)

Question: And the MIC99 (Staphylococcus aureus)?
Answer: 250 µg/mL (≈ 656 µM)

Question: What about the MIC99 (Pseudomonas aeruginosa) of the same compound?
Answer: 250 µg/mL (≈ 656 µM)

Question: And the MIC99 (Escherichia coli)?
Answer: 25 µg/mL (≈ 65.6 µM)

Question: What does the source list for `O=C(Nn1c(S)nnc1-c1cccc2ccccc12)c1cccc([N+](=O)[O-])c1`?
Answer: MIC99 (Aspergillus clavatus): 100 µg/mL (≈ 255 µM); MIC99 (Aspergillus niger): 200 µg/mL (≈ 511 µM); MIC99 (Candida albicans): 200 µg/mL (≈ 511 µM); MIC99 (Streptococcus pyogenes): 500 µg/mL (≈ 1280 µM); MIC99 (Staphylococcus aureus): 100 µg/mL (≈ 255 µM); MIC99 (Pseudomonas aeruginosa): 100 µg/mL (≈ 255 µM); MIC99 (Escherichia coli): 100 µg/mL (≈ 255 µM)

Question: For `O=C(Nn1c(S)nnc1-c1cccc2ccccc12)c1ccc(O)cc1`, which MIC99 (Aspergillus clavatus) is on record?
Answer: 500 µg/mL (≈ 1380 µM)

Question: And the MIC99 (Aspergillus niger)?
Answer: 500 µg/mL (≈ 1380 µM)

Question: What about the MIC99 (Candida albicans) of the same compound?
Answer: 500 µg/mL (≈ 1380 µM)

Question: And the MIC99 (Streptococcus pyogenes)?
Answer: 500 µg/mL (≈ 1380 µM)

Question: And the MIC99 (Staphylococcus aureus)?
Answer: 100 µg/mL (≈ 276 µM)

Question: And the MIC99 (Pseudomonas aeruginosa)?
Answer: 100 µg/mL (≈ 276 µM)

Question: What about the MIC99 (Escherichia coli) of the same compound?
Answer: 250 µg/mL (≈ 690 µM)

Question: With `O=C(Nn1c(S)nnc1-c1cccc2ccccc12)c1ccc([N+](=O)[O-])cc1` as the compound, how does the MIC99 (Aspergillus clavatus) read?
Answer: 50 µg/mL (≈ 128 µM)

Question: What about the MIC99 (Aspergillus niger) of the same compound?
Answer: 50 µg/mL (≈ 128 µM)

Question: What about the MIC99 (Candida albicans) of the same compound?
Answer: 50 µg/mL (≈ 128 µM)

Question: What about the MIC99 (Streptococcus pyogenes) of the same compound?
Answer: 500 µg/mL (≈ 1280 µM)

Question: And the MIC99 (Staphylococcus aureus)?
Answer: 250 µg/mL (≈ 639 µM)

Question: What about the MIC99 (Pseudomonas aeruginosa) of the same compound?
Answer: 25 µg/mL (≈ 63.9 µM)

Question: What about the MIC99 (Escherichia coli) of the same compound?
Answer: 50 µg/mL (≈ 128 µM)

Question: Which results are given for `O=C(Nn1c(S)nnc1-c1cccc2ccccc12)c1ccc2cccc([N+](=O)[O-])c2c1`?
Answer: MIC99 (Aspergillus clavatus): 50 µg/mL (≈ 113 µM); MIC99 (Aspergillus niger): 100 µg/mL (≈ 227 µM); MIC99 (Candida albicans): 100 µg/mL (≈ 227 µM); MIC99 (Streptococcus pyogenes): 250 µg/mL (≈ 566 µM); MIC99 (Staphylococcus aureus): 250 µg/mL (≈ 566 µM); MIC99 (Pseudomonas aeruginosa): 100 µg/mL (≈ 227 µM); MIC99 (Escherichia coli): 200 µg/mL (≈ 453 µM)

Question: Which results are given for `O=C(COc1ccc2ccccc2c1)Nn1c(S)nnc1-c1cccc2ccccc12`?
Answer: MIC99 (Aspergillus clavatus): 500 µg/mL (≈ 1170 µM); MIC99 (Aspergillus niger): 500 µg/mL (≈ 1170 µM); MIC99 (Candida albicans): 500 µg/mL (≈ 1170 µM); MIC99 (Streptococcus pyogenes): 500 µg/mL (≈ 1170 µM); MIC99 (Staphylococcus aureus): 250 µg/mL (≈ 586 µM); MIC99 (Pseudomonas aeruginosa): 250 µg/mL (≈ 586 µM); MIC99 (Escherichia coli): 100 µg/mL (≈ 234 µM)

Question: Which results are given for `CC1(C)S[C@@H]2[C@H](NC(=O)[C@H](N)c3ccccc3)C(=O)N2[C@H]1C(=O)O` [AMPICILLIN]?
Answer: MIC99 (Streptococcus pyogenes): 100 µg/mL (≈ 286 µM); MIC99 (Staphylococcus aureus): 250 µg/mL (≈ 715 µM); MIC99 (Pseudomonas aeruginosa): 100 µg/mL (≈ 286 µM); MIC99 (Escherichia coli): 100 µg/mL (≈ 286 µM)

Question: Which results are given for `COC1=CC(=O)C[C@@H](C)[C@]12Oc1c(Cl)c(OC)cc(OC)c1C2=O` [GRISEOFULVIN]?
Answer: MIC99 (Aspergillus clavatus): 100 µg/mL (≈ 283 µM); MIC99 (Aspergillus niger): 100 µg/mL (≈ 283 µM); MIC99 (Candida albicans): 500 µg/mL (≈ 1420 µM)
